Source: PubChem BioAssay (NCI)
Values joined by “and” are separate entries in the source; they are usually repeats but may differ in a detail not shown here. Equal entries are not always repeated.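 Exposure lasted 48 hours, with cells grown in 96-well plates and compounds tested at five concentrations. GI50 = concentration required for 50% inhibition of growth. TGI is the concentration that stops growth completely.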

Assays:
Assay in all cases: DTP human tumour cell line panel, 48 h
SW-620 colon = system: SW-620 colon
NCI/ADR-RES ovarian = system: NCI/ADR-RES ovarian
EKVX NSCLC = system: EKVX NSCLC
MDA-MB-231 breast = system: MDA-MB-231 breast
COLO 205 colon = system: COLO 205 colon
SNB-19 CNS = system: SNB-19 CNS
HCT-116 colon = system: HCT-116 colon
HCT-15 colon = system: HCT-15 colon
T-47D breast = system: T-47D breast
TK-10 renal = system: TK-10 renal

Row | SMILES | TGI (SW-620 colon) | TGI (NCI/ADR-RES ovarian) | TGI (EKVX NSCLC) | TGI (MDA-MB-231 breast) | TGI (COLO 205 colon) | TGI (SNB-19 CNS) | TGI (HCT-116 colon) | TGI (HCT-15 colon) | TGI (T-47D breast) | TGI (TK-10 renal) | GI50 (SW-620 colon) | GI50 (NCI/ADR-RES ovarian) | GI50 (EKVX NSCLC) [µM] | GI50 (MDA-MB-231 breast) | GI50 (COLO 205 colon) | GI50 (SNB-19 CNS) | GI50 (HCT-116 colon) | GI50 (HCT-15 colon) | GI50 (T-47D breast) | GI50 (TK-10 renal)
1 | CCCCCCC(C)CC(CCCCCC)NCCOC(=O)c1ccc([N+](=O)[O-])cc1 (centres undefined) | 28.8 µM and 28.5 µM | 58.8 µM and 32.1 µM | 27.2 µM and 21.4 µM | 23.5 µM and 20.9 µM | 17.9 µM and 12.8 µM | 32.2 µM and 32.5 µM | 28.1 µM and 24.1 µM | 33.1 µM and 26.7 µM | 39.3 µM and 38.1 µM | 24.5 µM and 23.4 µM | – | – | – | – | – | – | – | – | – | –
2 | COc1ccc(/C=C/C(=O)c2ccc(Nc3ncnc4ccccc34)cc2)cc1OC | > 100 µM | > 100 µM | > 100 µM | > 100 µM | > 100 µM | > 100 µM | 16.8 µM | > 100 µM | 25.2 µM | 62.9 µM | 3.51 µM | 3.82 µM | 13.9 | 19.8 µM | 14.8 µM | 11.5 µM | 0.547 µM | 8.63 µM | 3.61 µM | 8.29 µM
3 | CC(C)(C)Cn1c(N)nc2ccc(-c3[nH]c(C(C)(C)C)nc3-c3ccc(F)cc3)nc21 | 30.1 µM | 33.1 µM | 18.8 µM | 29.5 µM | 21.7 µM | 24.8 µM | 23 µM | 30.4 µM | 23.7 µM | 18.9 µM | 13.6 µM | 8.67 µM | 3.19 | 12.3 µM | 7.76 µM | 11.7 µM | 6.75 µM | 4.9 µM | 5.34 µM | 4.56 µM
4 | Cc1ccc(NC(=O)c2ccnc(C(F)(F)F)c2)cc1-c1cc(OCCO)nc(N2CCOCC2)c1 | 63.8 µM | 11.5 µM | 29.5 µM | 17.5 µM | 11.8 µM | 19.2 µM | > 100 µM | 19.4 µM | > 100 µM | > 100 µM | 1.55 µM | 2.63 µM | 2.44 | 0.688 µM | 0.445 µM | 3.64 µM | 0.7 µM | 2.24 µM | 3.31 µM | 6.66 µM
5 | CNC(=O)c1cc(Oc2ccc3nc(NC(=O)Nc4ccc(Cl)c(Cl)c4)sc3c2)ccn1 | > 100 µM | 5.09 µM | > 100 µM | 6.43 µM | > 100 µM | 3.98 µM | 4.35 µM | > 100 µM | 6.36 µM | 9.26 µM | 8.11 µM | 2.3 µM | 3.3 | 2.15 µM | 4.25 µM | 1.99 µM | 1.88 µM | 3.71 µM | 2.65 µM | 3.46 µM
6 | O=C(CNC(=O)c1cccc2ccccc12)Nc1ccccc1Oc1cccc(O)c1 | > 25 µM | > 25 µM | > 25 µM | > 25 µM | > 25 µM | > 25 µM | > 25 µM | > 25 µM | > 25 µM | > 25 µM | 3.12 µM | 7.94 µM | 8.82 | 17.6 µM | 14.7 µM | 8.73 µM | 1.36 µM | 3.14 µM | 9.84 µM | > 25 µM
7 | N#C/C(=C\c1cn(-c2ccccc2)c2ccccc12)C(=O)O | > 100 µM | > 100 µM | > 100 µM | > 100 µM | > 100 µM | > 100 µM | > 100 µM | > 100 µM | > 100 µM | – | 48.3 µM | 57.7 µM | 34.2 | 44.2 µM | 85.9 µM | 54.3 µM | 34.7 µM | 30.7 µM | 29.6 µM | –
8 | COc1ccc(C2=NNC(c3ccc(-c4ccc(OC)cc4[N+](=O)[O-])o3)C2)cc1 (centres undefined) | > 100 µM | 59.9 µM | > 100 µM | 43.6 µM | > 100 µM | > 100 µM | > 100 µM | > 100 µM | 88.1 µM | 46.3 µM | 78.2 µM | 17.9 µM | 18.4 | 1.89 µM | > 100 µM | 31.8 µM | 22.8 µM | 31 µM | 18.5 µM | 14.8 µM
9 | C=C1C(=O)O[C@H]2[C@H]1CC/C(COC(=O)NCCc1ccc(OC)cc1)=C\CC[C@@]1(C)O[C@@H]21 | 6.97 µM | 32.6 µM | 21.5 µM | 5.17 µM | 4.18 µM | 23.1 µM | 2.84 µM | 4.01 µM | 6.52 µM | 7.62 µM | 2.51 µM | 10 µM | 7.45 | 2.02 µM | 1.94 µM | 8.65 µM | 1.34 µM | 1.74 µM | 2.47 µM | 2.73 µM
10 | COc1cc(N2CCC(N(C)C)CC2)ccc1Nc1ncc(Cl)c(Nc2ccccc2P(C)(C)=O)n1 | > 26.5 µM and 6.65 µM | 98.1 µM and > 10 µM | > 7.38 µM | 7.37 µM and > 5.39 µM | 1.12 µM and 0.33 µM | 98.7 µM and > 10 µM | > 39.2 µM | 16.9 µM and > 9.67 µM | 38.5 µM and > 10 µM | 3.02 µM and 2.62 µM | 1.33 µM and 0.213 µM | 15.6 µM and > 6.15 µM | 0.344 | 1.22 µM and 0.333 µM | 0.252 µM and 0.0658 µM | 2.25 µM and 1.07 µM | 1.4 µM and 0.183 µM | 2.8 µM and 1.48 µM | 7.03 µM and 1.43 µM | 0.491 µM and 0.196 µM
11 | CC1(C)OC2C(CO)OC(n3ccc(=O)[nH]c3=O)C2O1 (centres undefined) | > 100 µM | > 100 µM | > 100 µM | > 100 µM | > 100 µM | > 100 µM | > 100 µM | > 100 µM | > 100 µM | > 100 µM | – | – | – | – | – | – | – | – | – | –
12 | O=C(Nc1ccccc1Cl)c1cnc2ccc(C3CCNCC3)cn12 | > 100 µM | > 100 µM | > 100 µM | 59.7 µM | 25 µM | > 100 µM | > 100 µM | > 100 µM | > 100 µM | 12.2 µM | > 100 µM | 39.2 µM | 11.7 | 2.48 µM | 2.85 µM | > 87.7 µM | 13.4 µM | 11 µM | 5.53 µM | 1.92 µM
13 | Nc1nc(-n2cccn2)nc(-n2cccn2)c1Br | > 100 µM | > 100 µM | > 100 µM | > 100 µM | > 100 µM | – | > 100 µM | > 100 µM | > 100 µM | – | > 100 µM | > 100 µM | > 100 | > 100 µM | > 100 µM | – | > 100 µM | > 100 µM | > 100 µM | –
